Each structure is given as a SMILES string.

For the assay, the target named is T1, Recombinant human H-PGDS (Homo sapiens, UniProt O60760).
T1 construct: made in house; host or cells: E. coli
T1 sequence (O60760 whole entry): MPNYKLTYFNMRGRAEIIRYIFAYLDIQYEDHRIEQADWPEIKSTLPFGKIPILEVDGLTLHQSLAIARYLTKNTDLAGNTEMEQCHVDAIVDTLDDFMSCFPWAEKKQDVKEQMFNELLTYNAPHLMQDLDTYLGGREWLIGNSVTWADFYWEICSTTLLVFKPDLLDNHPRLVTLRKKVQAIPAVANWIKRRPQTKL
The assay can be described thus: H-PGDS inhibitory activity (prostaglandin D2 production measured by LC-MS/MS). It is filed as biochemical. The conditions noted are these: recombinant human H-PGDS 1.0 nM expressed in E. coli; prostaglandin H2 25 μM; 15 min preincubation and 1 min reaction on ice. The method, then:
The H-PGDS inhibitory activity of each Example compound was measured according to the method described in WO 2007/041634.
Recombinant human H-PGDS (final concentration: 1.0 nM) expressed in E. coli was mixed in an assay buffer containing 20 mM Tris-HCl (pH 8.0), 2 mM magnesium chloride, 2 mM reduced glutathione, and 0.5 mg/mL γ-globulin, and 150 μL of the mixture was dispensed into an 8-strip PCR tube (BM Equipment Co., Ltd). Test compounds (Example compounds) (16.5 μL) at various concentrations dissolved in DMSO were added and the mixture was preincubated for 15 minutes on ice.
Prostaglandin H2 (final concentration: 25 μM) (Cayman Chemical) was dispensed into another 8-strip PCR tube, and the solvent was dried and solidified using a vacuum concentrator (Thermo Fisher Scientific). To the dried and solidified prostaglandin H2 was added 50 μL of the assay buffer containing H-PGDS and each test compound after the preincubation, and the mixture was reacted on ice for 1 minute. 40 μL of this mixture was added to 40 μL of a stop solution (50 mM aqueous citric acid solution containing iron chloride at a final concentration of 4 mg/mL) to stop the reaction. Then, the reaction solution was deproteinized, added to a 96 square deep well plate (SHONANMARUHACHI STEC Co., Ltd.), and the prostaglandin D2 concentration in the reaction solution was measured by LC-MS/MS. ACQUITY (registered trademark) TQD (Waters) was used as a measuring instrument.
Prostaglandin D2 production activity (%) in the group with each test compound when a value obtained by subtracting the amount of production of prostaglandin D2 in the group without enzyme, which is non-specific production of prostaglandin D2, from the amount of production of prostaglandin D2 in the group without test compound (DMSO-addition group) in each 8-strip PCR tube is 100% was calculated. From the calculated activity value, the test compound concentration that inhibits prostaglandin D2 production by 50% (IC50) was determined.
By IC50 is commonly meant the concentration needed to halve the response being measured. As to `O=C(NC12CCC(O)(CC1)C2)c1ccc(-c2ncc(Cl)c3[nH]ccc23)cc1` [Example 32, 4-(7-chloro-1H-pyrrolo[3,2-c]pyridin-4-yl)-N-(4-hydroxybicyclo[2.2.1]heptan-1-yl)benzamide], the IC50 came out at 0.91 nM.
The figure for `O=C(N[C@H]1CC[C@@H](O)CC1)c1ccc(-c2ncc(Cl)c3[nH]ccc23)cc1` [Example 33, 4-(7-chloro-1H-pyrrolo[3,2-c]pyridin-4-yl)-N-(cis-4-hydroxycyclohexyl)benzamide] is 0.77 nM; for `C[C@]1(O)CC[C@H](NC(=O)c2ccc(-c3ncc(Cl)c4[nH]ccc34)cc2)CC1` [Example 34, 4-(7-chloro-1H-pyrrolo[3,2-c]pyridin-4-yl)-N-(trans-4-hydroxy-4-methylcyclohexyl)benzamide] it is 0.86 nM.
The figure for `CC(C)(O)[C@H]1CC[C@H](NC(=O)c2ccc(-c3ncc(F)c4[nH]ccc34)c(F)c2)CC1` [Example 35, 3-fluoro-4-(7-fluoro-1H-pyrrolo[3,2-c]pyridin-4-yl)-N-[trans-4-(2-hydroxypropan-2-yl)cyclohexyl]benzamide] is 1.2 nM.
On to `O=C(NC12CCC(O)(CC1)CC2)c1ccc(-c2ncc(F)c3[nH]ccc23)c(F)c1` [Example 36, 3-fluoro-4-(7-fluoro-1H-pyrrolo[3,2-c]pyridin-4-yl)-N-(4-hydroxybicyclo[2.2.2]octan-1-yl)benzamide], for which the IC50 is 0.71 nM.
The figure for `C[C@]1(O)CC[C@H](NC(=O)c2ccc(-c3ncc(F)c4[nH]ccc34)c(F)c2)CC1` [Example 37, 3-fluoro-4-(7-fluoro-1H-pyrrolo[3,2-c]pyridin-4-yl)-N-(trans-4-hydroxy-4-methylcyclohexyl)benzamide] is 0.95 nM.
`O=C(NC1CCOCC1)c1ccc(-c2ncc(F)c3[nH]ccc23)c(F)c1` [Example 38, 3-fluoro-4-(7-fluoro-1H-pyrrolo[3,2-c]pyridin-4-yl)-N-(tetrahydropyran-4-yl)benzamide]: the IC50 came out at 0.85 nM.
The figure for `O=C(N[C@H]1CC[C@H](O)CC1)c1ccc(-c2ncc(F)c3[nH]ccc23)c(F)c1` [Example 39, 3-fluoro-4-(7-fluoro-1H-pyrrolo[3,2-c]pyridin-4-yl)-N-(trans-4-hydroxycyclohexyl)benzamide] is 0.65 nM.
The figure for `C[C@]1(O)CC[C@@H](NC(=O)c2ccc(-c3ncc(F)c4[nH]ccc34)c(F)c2)CC1` [Example 40, 3-fluoro-4-(7-fluoro-1H-pyrrolo[3,2-c]pyridin-4-yl)-N-(cis-4-hydroxy-4-methylcyclohexyl)benzamide] is 1.1 nM; for `O=C(NC12CCC(O)(CC1)C2)c1ccc(-c2ncc(F)c3[nH]ccc23)c(F)c1` [Example 41, 3-fluoro-4-(7-fluoro-1H-pyrrolo[3,2-c]pyridin-4-yl)-N-(4-hydroxybicyclo[2.2.1]heptan-1-yl)benzamide] it is 0.89 nM; for `O=C(N[C@H]1CC[C@@H](O)CC1)c1ccc(-c2ncc(F)c3[nH]ccc23)c(F)c1` [Example 42, 3-fluoro-4-(7-fluoro-1H-pyrrolo[3,2-c]pyridin-4-yl)-N-(cis-4-hydroxycyclohexyl)benzamide] it is 0.92 nM.
The figure for `CC(C)(O)[C@H]1CC[C@H](NC(=O)c2ccc(-c3nccc4[nH]ncc34)cc2)CC1` [Example 43, N-[trans-4-(2-hydroxypropan-2-yl)cyclohexyl]-4-(1H-pyrazolo[4,3-c]pyridin-4-yl)benzamide] is 2.4 nM.
With `CC(C)(O)[C@H]1CC[C@H](NC(=O)c2ccc(-c3nccc4[nH]cnc34)cc2)CC1` [Example 44, N-[trans-4-(2-hydroxypropan-2-yl)cyclohexyl]-4-(1H-imidazo[4,5-c]pyridin-4-yl)benzamide], the IC50 stood at 4 nM.
The figure for `CC(C)(O)[C@H]1CC[C@H](NC(=O)c2ccc(-c3nccc4[nH]nnc34)cc2)CC1` [Example 45, 4-(1H-[1,2,3]triazolo[4,5-c]pyridin-4-yl)-N-[trans-4-(2-hydroxypropan-2-yl)cyclohexyl]benzamide] is 24 nM.
The figure for `CC(C)(O)[C@H]1CC[C@H](NC(=O)c2ccc(-c3ncc(F)c4[nH]ncc34)cc2)CC1` [Example 46, 4-(7-fluoro-1H-pyrazolo[4,3-c]pyridin-4-yl)-N-[trans-4-(2-hydroxypropan-2-yl)cyclohexyl]benzamide] is 5.3 nM; for `O=C(NC12CCC(O)(CC1)CC2)c1ccc(-c2ncc(F)c3[nH]ncc23)cc1` [Example 47, 4-(7-fluoro-1H-pyrazolo[4,3-c]pyridin-4-yl)-N-(4-hydroxybicyclo[2.2.2]octan-1-yl)benzamide] it is 14 nM; for `CC(C)(O)[C@H]1CC[C@H](NC(=O)c2ccc(-c3ncc(Cl)c4[nH]ncc34)cc2)CC1` [Example 48, 4-(7-chloro-1H-pyrazolo[4,3-c]pyridin-4-yl)-N-[trans-4-(2-hydroxypropan-2-yl)cyclohexyl]benzamide] it is 5.9 nM.
The figure for `CC(C)(O)[C@H]1CC[C@H](NC(=O)c2ccc(-c3nccc4[nH]ncc34)c(F)c2)CC1` [Example 49, 3-fluoro-N-[trans-4-(2-hydroxypropan-2-yl)cyclohexyl]-4-(1H-pyrazolo[4,3-c]pyridin-4-yl)benzamide] is 0.78 nM.

Values taken from patent US20250074906A1, “AZAINDOLE DERIVATIVE THAT INHIBITS H-PGDS” (SATO PHARMACEUTICAL CO., LTD., priority 2021, published 2025).
